Reference: PMC8518411, “Discovery of GPR183 Agonists Based on an Antagonist Scaffold” (Chemmedchem, 2021)
“Also recorded” adds a separate entry of the source. Like-named read-outs stand apart in the source and are kept apart here.

Tests used:
GPR183 [1] = biological target: T1, GPR183 (Homo sapiens, UniProt P32249); test: cell-based
GPR183 [2] = biological target: T1, GPR183; assay type: cell-based; design: hemagglutinin signal peptide (upstream of the FLAG tag) (N); expressed in transfected cells; host or cells: CHO-K1 (ATCC CCL-61), transient lipofection, modified pcDNA3 vector; conditions: for agonist activity in calcium mobilization screen: 10 μM compound
GPR183 [3] = biological target: T1, GPR183; test: BRET cAMP (CAMYEL biosensor) assay, antagonist mode (antagonist added 10 min prior to agonist); assay type: cell-based; design: hemagglutinin signal peptide (upstream of the FLAG tag) (N); expressed in transfected cells; host or cells: CHO-K1 (ATCC CCL-61), transient lipofection, modified pcDNA3 vector
GPR183 [4] = biological target: T1, GPR183; conditions: dose-response, BRET
[5] = calcium assay dose-response, mean of 3 experiments in duplicates, read-out: EC50 (potency)
[6] = EC50 (potency), Gαi coupling, BRET, three experiments

T1 sequence (P32249 whole entry): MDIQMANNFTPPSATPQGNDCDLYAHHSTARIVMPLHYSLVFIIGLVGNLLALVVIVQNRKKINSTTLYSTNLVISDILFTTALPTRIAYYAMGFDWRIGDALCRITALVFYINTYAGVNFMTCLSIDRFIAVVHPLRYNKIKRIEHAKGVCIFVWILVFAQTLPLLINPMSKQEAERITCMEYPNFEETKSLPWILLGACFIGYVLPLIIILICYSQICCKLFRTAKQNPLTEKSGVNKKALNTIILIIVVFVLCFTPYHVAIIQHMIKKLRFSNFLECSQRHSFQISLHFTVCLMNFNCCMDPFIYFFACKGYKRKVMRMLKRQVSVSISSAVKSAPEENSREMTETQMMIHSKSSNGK

For `C[C@H](CCCC(C)(C)O)[C@H]1CC[C@H]2[C@@H]3[C@H](O)C=C4C[C@@H](O)CC[C@]4(C)[C@H]3CC[C@]12C` [Compound 1, 7α,25‐dihydroxycholesterol, reference compound], the EC50 (GPR183 [1]) was 19 nM and the EC50 (GPR183 [2]) was 17 nM.
With `Cc1nn(C)c(C)c1/C=C/C(=O)N1CCN(C(=O)C2COc3ccccc3O2)CC1` (centres unmarked) [Compound 9] the EC50 (GPR183 [2]; [5]) was 634 nM.
Work on `O=C(/C=C/c1cccs1)N1CCN(C(=O)c2cccc3ccccc23)CC1` [Compound 10] yielded an EC50 (GPR183 [2]; [5]) of 86 nM.
For `O=C(/C=C/c1ccccc1Br)N1CCN(C(=O)Cc2ccc(F)cc2)CC1` [Compound 12], the EC50 (GPR183 [2]; [5]) was 107 nM.
`O=C(CCC1CCCC1)N1CCN(C(=O)c2cc(=O)c3ccccc3o2)CC1` [Compound 13] was tested, and the EC50 (GPR183 [2]; [5]) was 165 nM.
In the case of `O=C(COc1cccc2ccccc12)N1CCN(C(=O)c2ccccc2)CC1` [Compound 15], the EC50 (GPR183 [1]; [6]) is reported as 660 nM and the EC50 (GPR183 [2]; [5]) is reported as 209 nM.
For `COc1cc(C(=O)N2CCN(C(=O)COc3ccc(Cl)cc3C)CC2)ccc1C` [Compound 16], the EC50 (GPR183 [1]; [6]) was 51 nM, the EC50 (GPR183 [1]; pEC50±SE, Gαi coupling, BRET) was 50.1 nM and the EC50 (GPR183 [2]; [5]) was 179 nM.
`O=C(COc1ccc(F)cc1Br)N1CCN(C(=O)C2COc3ccccc3O2)CC1` (centres unmarked) [Compound 17] showed an EC50 (GPR183 [2]; [5]) of 278 nM.
With `O=C(COc1ccc(F)cc1Cl)N1CCN(C(=O)c2cccs2)CC1` [Compound 18] the “agonist activity in calcium mobilization screen” value (GPR183 [2]) was “active” and the EC50 (GPR183 [2]; [5]) was 740 nM.
For `O=C(COc1ccc2c(c1)CCC2)N1CCN(C(=O)c2cccs2)CC1` [Compound 69], the “agonist activity in calcium mobilization screen” value (GPR183 [2]) was “inactive”.
`O=C(/C=C/c1ccccc1)N1CCN(C(=O)c2ccccc2)CC1` [Compound 88] gave an inhibition at 10 µM (GPR183 [3]; 10 μM (highest concentration tested), 10 nM of agonist 1 after preincubation, read-out: inhibition of G protein activity induced by 1) of 79%.
`O=C(COc1ccccc1)N1CCN(C(=O)c2ccccc2)CC1` [Compound 90] was tested, and the “antagonist properties (inhibition of G protein activity induced by 1)” value (GPR183 [3]; 10 nM of agonist 1 after preincubation with compound) was “did not inhibit” and the “agonist activity (Gαi coupling)” value (GPR183 [4]) was “inactive”.
With `Cc1cc(Cl)ccc1OCC(=O)N1CCN(C(=O)c2ccccc2)CC1` [Compound 91] the EC50 (GPR183 [1]; [6]) was 64 nM, the EC50 (GPR183 [1]; pEC50±SE, Gαi coupling, BRET) was 63.1 nM and the “agonist activity (Gαi coupling)” value (GPR183 [4]) was “partial agonist properties; also recorded: active”.
In the case of `COc1cc(C(=O)N2CCN(C(=O)COc3cccc4ccccc34)CC2)ccc1C` [Compound 92], the EC50 (GPR183 [1]; [6]) is reported as 757 nM and the “agonist activity (Gαi coupling)” value (GPR183 [4]) is reported as “partial agonist properties”.
